Laboratory results from ChEMBL document CHEMBL5528040, “Design and Synthesis of Novel 3-Nitro-1H-1,2,4-triazole-1,2,3-triazole-1,4-disubstituted Analogs as Promising Antitrypanosomatid Agents: Evaluation of In Vitro Activity against Chagas Disease and Leishmaniasis” (J Med Chem, 2024).

Experiments:
[1] = Mutagenicity in Salmonella typhimurium TA100 assessed as mutagenic index ratio at 1500 ug per plate incubated for 90 mins in presence of S9 fraction by AMES test; assay type: toxicity, subcellular, Salmonella enterica subsp. enterica serovar Typhimurium; conditions: s9, 1.5 h, dose 1500 µg
[2] = Mutagenicity in Salmonella typhimurium TA100 assessed as mutagenic index ratio at 150 ug per plate incubated for 90 mins in presence of S9 fraction by AMES test; assay type: toxicity, subcellular, Salmonella enterica subsp. enterica serovar Typhimurium; conditions: s9, 1.5 h, dose 150 µg
[3] = Mutagenicity in Salmonella typhimurium TA98 assessed as mutagenic index ratio at 150 ug per plate incubated for 90 mins by AMES test; assay type: toxicity, Salmonella enterica subsp. enterica serovar Typhimurium; conditions: in vivo, 1.5 h, dose 150 µg
[4] = Mutagenicity in Salmonella typhimurium TA98 assessed as mutagenic index ratio at 1500 ug per plate incubated for 90 mins in presence of S9 fraction by AMES test; assay type: toxicity, subcellular, Salmonella enterica subsp. enterica serovar Typhimurium; conditions: s9, 1.5 h, dose 1500 µg
[5] = Mutagenicity in Salmonella typhimurium TA98 assessed as mutagenic index ratio at 500 ug per plate incubated for 90 mins in presence of S9 fraction by AMES test; assay type: toxicity, subcellular, Salmonella enterica subsp. enterica serovar Typhimurium; conditions: s9, 1.5 h, dose 500 µg
[6] = Mutagenicity in Salmonella typhimurium TA100 assessed as mutagenic index ratio at 500 ug per plate incubated for 90 mins by AMES test; assay type: toxicity, Salmonella enterica subsp. enterica serovar Typhimurium; conditions: in vivo, 1.5 h, dose 500 µg
[7] = Substrate activity at Trypanosoma cruzi type I nitro reductase assessed as reduction in NADH incubated for 120 sec by spectrophotometric analysis
[8] = Mutagenicity in Salmonella typhimurium TA102 assessed as mutagenic index ratio at 5000 ug per plate incubated for 90 mins in presence of S9 fraction by AMES test; assay type: toxicity, subcellular, Salmonella enterica subsp. enterica serovar Typhimurium; conditions: s9, 1.5 h, dose 5000 µg
[9] = Mutagenicity in Salmonella typhimurium TA102 assessed as number of revertant colonies at 500 ug per plate incubated for 90 mins by AMES test (reference value: 110.67 +/- 20.15); assay type: toxicity, Salmonella enterica subsp. enterica serovar Typhimurium; conditions: in vivo, 1.5 h, dose 500 µg
Trypanosoma cruzi [10] = experiment: Potency index, ratio of Benznidazole IC50 to test compound IC50 for antitrypanosomal activity against Trypanosoma cruzi Tulahuen amastigotes transfected with Escherichia coli beta-galactosidase LacZ gene infected in monkey LLC-MK2 cells assessed as inhibition of amastigotes growth incubated for 72 hrs by absorbance based microplate reader analysis; assay type: functional
[11] = Mutagenicity in Salmonella typhimurium TA98 assessed as mutagenic index ratio at 500 ug per plate incubated for 90 mins by AMES test; assay type: toxicity, Salmonella enterica subsp. enterica serovar Typhimurium; conditions: in vivo, 1.5 h, dose 500 µg
[12] = Mutagenicity in Salmonella typhimurium TA98 assessed as number of revertant colonies at 500 ug per plate incubated for 90 mins by AMES test (reference value: 22.67 +/- 0.58); assay type: toxicity, Salmonella enterica subsp. enterica serovar Typhimurium; conditions: in vivo, 1.5 h, dose 500 µg
[13] = Mutagenicity in Salmonella typhimurium TA100 assessed as number of revertant colonies at 5000 ug per plate incubated for 90 mins by AMES test (reference value: 88.00 +/- 2.65); assay type: toxicity, Salmonella enterica subsp. enterica serovar Typhimurium; conditions: in vivo, 1.5 h, dose 5000 µg
[14] = Mutagenicity in Salmonella typhimurium TA100 assessed as number of revertant colonies at 150 ug per plate incubated for 90 mins by AMES test (reference value: 88.00 +/- 2.65); assay type: toxicity, Salmonella enterica subsp. enterica serovar Typhimurium; conditions: in vivo, 1.5 h, dose 150 µg
[15] = Mutagenicity in Salmonella typhimurium TA102 assessed as mutagenic index ratio at 50 ug per plate incubated for 90 mins by AMES test; assay type: toxicity, Salmonella enterica subsp. enterica serovar Typhimurium; conditions: in vivo, 1.5 h, dose 50 µg
[16] = Mutagenicity in Salmonella typhimurium TA102 assessed as number of revertant colonies at 1500 ug per plate incubated for 90 mins in presence of S9 fraction by AMES test (reference value: 130.00 +/- 6.93); assay type: toxicity, subcellular, Salmonella enterica subsp. enterica serovar Typhimurium; conditions: s9, 1.5 h, dose 1500 µg
Trypanosoma cruzi [17] = experiment: Antitrypanosomal activity against Trypanosoma cruzi Tulahuen amastigotes transfected with Escherichia coli beta-galactosidase LacZ gene infected in monkey LLC-MK2 cells assessed as inhibition of amastigotes growth incubated for 72 hrs by absorbance based microplate reader analysis; assay type: functional, organism-based; conditions: LLC-MK2, 72 h
[18] = Mutagenicity in Salmonella typhimurium TA98 assessed as number of revertant colonies at 5000 ug per plate incubated for 90 mins in presence of S9 fraction by AMES test (reference value: 21.00 +/- 1.00); assay type: toxicity, subcellular, Salmonella enterica subsp. enterica serovar Typhimurium; conditions: s9, 1.5 h, dose 5000 µg
[19] = Mutagenicity in Salmonella typhimurium TA100 assessed as mutagenic index ratio at 50 ug per plate incubated for 90 mins by AMES test; assay type: toxicity, Salmonella enterica subsp. enterica serovar Typhimurium; conditions: in vivo, 1.5 h, dose 50 µg
[20] = Mutagenicity in Salmonella typhimurium TA98 assessed as number of revertant colonies at 50 ug per plate incubated for 90 mins in presence of S9 fraction by AMES test (reference value: 21.00 +/- 1.00); assay type: toxicity, subcellular, Salmonella enterica subsp. enterica serovar Typhimurium; conditions: s9, 1.5 h, dose 50 µg
[21] = Mutagenicity in Salmonella typhimurium TA98 assessed as mutagenic index ratio at 50 ug per plate incubated for 90 mins in presence of S9 fraction by AMES test; assay type: toxicity, subcellular, Salmonella enterica subsp. enterica serovar Typhimurium; conditions: s9, 1.5 h, dose 50 µg
[22] = Mutagenicity in Salmonella typhimurium TA98 assessed as number of revertant colonies at 1500 ug per plate incubated for 90 mins in presence of S9 fraction by AMES test (reference value: 21.00 +/- 1.00); assay type: toxicity, subcellular, Salmonella enterica subsp. enterica serovar Typhimurium; conditions: s9, 1.5 h, dose 1500 µg
[23] = Mutagenicity in Salmonella typhimurium TA100 assessed as mutagenic index ratio at 150 ug per plate incubated for 90 mins by AMES test; assay type: toxicity, Salmonella enterica subsp. enterica serovar Typhimurium; conditions: in vivo, 1.5 h, dose 150 µg
[24] = Mutagenicity in Salmonella typhimurium TA102 assessed as number of revertant colonies at 50 ug per plate incubated for 90 mins in presence of S9 fraction by AMES test (reference value: 130.00 +/- 6.93); assay type: toxicity, subcellular, Salmonella enterica subsp. enterica serovar Typhimurium; conditions: s9, 1.5 h, dose 50 µg
[25] = Mutagenicity in Salmonella typhimurium TA102 assessed as number of revertant colonies at 150 ug per plate incubated for 90 mins in presence of S9 fraction by AMES test (reference value: 130.00 +/- 6.93); assay type: toxicity, subcellular, Salmonella enterica subsp. enterica serovar Typhimurium; conditions: s9, 1.5 h, dose 150 µg
[26] = Selectivity index, ratio of CC50 for cytotoxicity against monkey LLC-MK2 cells to IC50 for antitrypanosomal activity against Trypanosoma cruzi Tulahuen amastigotes transfected with Escherichia coli beta-galactosidase LacZ gene infected in monkey LLC-MK2 cells; assay type: toxicity, cell-based; conditions: read-out: Ratio CC50/IC50
[27] = Mutagenicity in Salmonella typhimurium TA100 assessed as number of revertant colonies at 50 ug per plate incubated for 90 mins by AMES test (reference value: 88.00 +/- 2.65); assay type: toxicity, Salmonella enterica subsp. enterica serovar Typhimurium; conditions: in vivo, 1.5 h, dose 50 µg
[28] = Mutagenicity in Salmonella typhimurium TA100 assessed as mutagenic index ratio at 1500 ug per plate incubated for 90 mins by AMES test; assay type: toxicity, Salmonella enterica subsp. enterica serovar Typhimurium; conditions: in vivo, 1.5 h, dose 1500 µg
Leishmania amazonensis = experiment: Antileishmanial activity against Leishmania amazonensis IFLA/BR/1967/PH8 amastigotes infected in murine peritoneal macrophages incubated for 24 hrs by Giemsa staining based analysis; assay type: functional, organism-based; conditions: IFLA/BR/1967/PH8, Peritoneal macrophage
[29] = Mutagenicity in Salmonella typhimurium TA102 assessed as mutagenic index ratio at 150 ug per plate incubated for 90 mins by AMES test; assay type: toxicity, Salmonella enterica subsp. enterica serovar Typhimurium; conditions: in vivo, 1.5 h, dose 150 µg
[30] = Mutagenicity in Salmonella typhimurium TA98 assessed as mutagenic index ratio at 5000 ug per plate incubated for 90 mins in presence of S9 fraction by AMES test; assay type: toxicity, subcellular, Salmonella enterica subsp. enterica serovar Typhimurium; conditions: s9, 1.5 h, dose 5000 µg
[31] = Mutagenicity in Salmonella typhimurium TA100 assessed as number of revertant colonies at 1500 ug per plate incubated for 90 mins in presence of S9 fraction by AMES test (reference value: 122.67 +/- 5.03); assay type: toxicity, subcellular, Salmonella enterica subsp. enterica serovar Typhimurium; conditions: s9, 1.5 h, dose 1500 µg

For O=[N+]([O-])c1ncn(Cc2cn(-c3ccc(OC(F)(F)F)cc3)nn2)n1, the Ratio [1] was 0.8, the Ratio [2] was 0.9 and the Ratio [3] was 1. The Ratio [4] was 1, the Ratio [5] was 1.1 and the Ratio [6] was 0.9. The pIC50 [7] was 7.04, the Ratio [8] was 1 and the Activity [9] was 159.67. The “Ratio IC50” value (Trypanosoma cruzi [10]) was 68, the Ratio [11] was 0.9 and the Activity [12] was 21.33. The Activity [13] was 80.67, the Activity [14] was 96 and the Ratio [15] was 1.9. The Activity [16] was 178.67, the IC50 (Trypanosoma cruzi [17]) was 90 nM and the Activity [18] was 15.33. It also gave a Ratio [19] of 1.1, an Activity [20] of 22.67 and a Ratio [21] of 1. For the same molecule, the Activity [22] was 22, the Ratio [23] was 1 and the Activity [24] was 162.67. For the same molecule, the Activity [25] was 172.33, the selectivity ratio [26] was over 556 and the Activity [27] was 104.33. It also gave a Ratio [28] of 0.9, an IC50 (Leishmania amazonensis) of 4700 nM and a Ratio [29] of 1.4. The Ratio [30] was 0.7 and the Activity [31] was 98.33.
